Data on 2 compounds can be found in article PMC12081877 (Nature Communications, 2025).

Molecules are shown by their SMILES.

One test concerns ISM3312 P18 virus. Type of test: cell-based, SARS-CoV-2.
The subject of the next test is a panel of M^pro mutants. It is filed as biochemical, SARS-CoV-2.

For the compound `CC(C)(C)[C@H](NC(=O)C(F)(F)F)C(=O)N1C[C@H]2[C@@H]([C@H]1C(=O)N[C@H](C#N)C[C@@H]1CCNC1=O)C2(C)C` [Nirmatrelvir], in the test with ISM3312 P18 virus, the “resistance level against the ISM3312 P18 virus” value is given as “no resistance (key: white, no resistance ( < threefold); light blue, low-level resistance (3- to 10-fold); Medium blue, moderate-level resistance (10- to 50-fold); dark blue, high-level resistance ( > 50-fold))”. Regarding `Cn1cnc(Cn2c(=O)[nH]/c(=N\c3cc4cn(C)nc4cc3Cl)n(Cc3cc(F)c(F)cc3F)c2=O)n1` [Ensitrelvir], the resistance level result in the test with a panel of M^pro mutants is reported as “moderate- to high-levels resistance”.
